Results: paper PMC3382112 (Chemistry, an Asian journal, 2012)

Tests used:
DQ2–CLIP complex = DQ2–CLIP complex (Homo sapiens, UniProt P01909+P01920); experiment: CLIP pre-conditioned peptide exchange assay; type: binding; conditions: CE-FL; for binding to DQ2–CLIP preparation / displacement of pre-bound CLIP peptide: pH 5.5, peptide:DQ2 5:1 ([Cy5-20-mer]=35 μM; [DQ2-CLIP complex]=7 μM)
HLA-DQ2 = experiment: DQ2-peptide binding; design: species or system human; conditions: single peptide binding; thrombin treated DQ2–αI; DQ2:peptide = 10:1 ([DQ2]=6 μM, [peptide]=0.6 μM); 48 h at 37 °C; phosphate buffer pH 7.3; CE-FL peak areas; error less than 4% in multiple repeats

DQ2–CLIP complex, sequence (P01920 33-230 limits assumed, other chains not shown): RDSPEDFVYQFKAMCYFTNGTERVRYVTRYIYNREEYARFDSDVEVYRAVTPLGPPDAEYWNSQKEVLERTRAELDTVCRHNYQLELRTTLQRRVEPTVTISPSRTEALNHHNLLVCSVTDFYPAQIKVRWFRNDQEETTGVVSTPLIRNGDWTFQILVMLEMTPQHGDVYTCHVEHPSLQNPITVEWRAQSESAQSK

Substance	binding to DQ2–CLIP preparation / displacement of pre-bound CLIP peptide (DQ2–CLIP complex)	effect on dissociation kinetics of CLIP peptide from DQ2–CLIP complex (DQ2–CLIP complex; pH 7.3, with 20-mer (5:1, [Cy5-20-mer]=35 μM; [DQ2-CLIP complex]=7 μM) versus absence of 20-mer)	SDQ2-peptide / Stotal peptide (%) (binding capacity, fraction of bound peptide) (HLA-DQ2)
Cy5-LQLQPFPQPELPYPQPELPY [Cy5-20-mer]	not at pH 5.5	did not affect the dissociation kinetics	64
Cy5-AAIAAVKEEAF [reference compound]	unable to bind	–	–
